What was measured:
[1] = biological target: first bromodomain of BRD4 (Homo sapiens (Human), UniProt O60885); experiment: Bromoscan binding assay BRD4 (1); conditions: for Kd: Bromoscan, geometric mean where multiple measurements have been made; for Selectivity BRD4(2)/BRD4(1): ratio BRD4(2) Kd / BRD4(1) Kd
Method: (§1) Compounds were assayed for binding affinity using bromoscan assays and a phosphodiesterase three assay.
(§2) Bromoscan assays were run by DiscoveRx Corporation. The relevant assay names are BRD4 (1) for the first bromodomain of BRD4 and BRD4 (2) for the second bromodomain of BRD4. Further Bromoscan assays covering other bromodomains may be employed to establish the selectivity profile of a compound of interest. To run the Bromoscan assay, a T7 phage strain displaying the relevant bromodomain was grown in parallel in 24-well blocks in an E. coli host derived from the BL21 strain. E. coli were grown to log-phase and infected with T7 phage from a frozen stock (multiplicity of infection=0.4) and incubated with shaking at 32° C. until lysis (90-150 minutes). The lysates were centrifuged (5,000×g) and filtered (0.2 μm) to remove cell debris. […] The liganded beads were blocked with excess biotin and washed with blocking buffer (SeaBlock (Pierce), 1% BSA (bovine serum albumin), 0.05% Tween 20, 1 mM DTT (dithiothreitol)) to remove unbound ligand and to reduce non-specific phage binding. […] Test compounds were prepared as 1000× stocks in 100% DMSO and subsequently diluted 1:10 in monoethylene glycol (MEG) to create stocks at 100× the screening concentration (resulting stock solution is 10% DMSO/90% MEG). The compounds were then diluted directly into the assays such that the final concentration of DMSO and MEG were 0.1% and 0.9%, respectively. All reactions were performed in polystyrene 96-well plates in a final volume of 0.135 ml. […] The bromodomain concentration in the eluates was measured by qPCR (quantitative real-time polymerase chain reaction). Binding constants (Kds) were calculated with a standard dose-response curve using the Hill equation: Response=Blackground+((Signal-Background)/(1+Kd^Hill Slope/Dose^Hill Slope)). The Hill Slope was set to −1. Curves were fitted using a non-linear least square fit with the Levenberg-Marquardt algorithm.

[2] = biological target: second bromodomain of BRD4 (Homo sapiens (Human), UniProt O60885); experiment: Bromoscan binding assay BRD4 (2); conditions: geometric mean where multiple measurements have been made
Method: as §1, §2

[3] = biological target: human recombinant phosphodiesterase (PDE3A) (Homo sapiens (Human), UniProt Q14432); experiment: Radiometric PDE3A assay; format: biochemical; conditions: [3H]-cAMP hydrolysis, 20 minutes at 30° C.
Chain of human recombinant phosphodiesterase (PDE3A) (Q14432 whole entry): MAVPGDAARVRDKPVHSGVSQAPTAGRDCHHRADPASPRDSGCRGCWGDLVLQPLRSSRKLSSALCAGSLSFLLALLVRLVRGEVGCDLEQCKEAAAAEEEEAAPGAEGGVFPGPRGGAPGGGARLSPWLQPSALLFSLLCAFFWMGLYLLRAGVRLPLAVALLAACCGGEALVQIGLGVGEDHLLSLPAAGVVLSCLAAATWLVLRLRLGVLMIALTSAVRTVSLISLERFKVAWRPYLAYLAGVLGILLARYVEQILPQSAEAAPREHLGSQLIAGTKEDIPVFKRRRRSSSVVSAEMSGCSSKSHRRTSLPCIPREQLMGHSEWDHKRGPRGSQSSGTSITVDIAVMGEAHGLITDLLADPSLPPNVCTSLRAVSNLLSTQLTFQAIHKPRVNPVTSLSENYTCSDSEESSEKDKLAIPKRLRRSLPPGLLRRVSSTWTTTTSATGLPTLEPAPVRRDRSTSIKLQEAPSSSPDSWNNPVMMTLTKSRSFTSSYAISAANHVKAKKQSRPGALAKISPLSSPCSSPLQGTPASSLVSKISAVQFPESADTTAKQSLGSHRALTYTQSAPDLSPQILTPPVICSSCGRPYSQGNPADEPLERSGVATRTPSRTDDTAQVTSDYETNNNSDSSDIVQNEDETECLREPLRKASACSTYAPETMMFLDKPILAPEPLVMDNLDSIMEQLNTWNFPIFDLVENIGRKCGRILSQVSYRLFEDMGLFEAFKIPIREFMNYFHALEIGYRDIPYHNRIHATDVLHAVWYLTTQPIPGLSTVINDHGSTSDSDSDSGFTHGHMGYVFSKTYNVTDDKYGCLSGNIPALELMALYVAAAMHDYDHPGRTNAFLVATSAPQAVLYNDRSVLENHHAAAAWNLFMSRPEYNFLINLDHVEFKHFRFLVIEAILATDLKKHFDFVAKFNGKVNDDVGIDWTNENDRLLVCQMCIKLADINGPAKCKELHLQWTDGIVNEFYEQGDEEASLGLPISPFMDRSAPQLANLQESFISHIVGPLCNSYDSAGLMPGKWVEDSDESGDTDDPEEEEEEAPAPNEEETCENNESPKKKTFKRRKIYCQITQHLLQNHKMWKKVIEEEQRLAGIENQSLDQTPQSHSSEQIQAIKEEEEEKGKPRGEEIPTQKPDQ
Method: Partially purified human recombinant phosphodiesterase (PDE3A) was obtained by cloning cDNA and expressing in S. frugiperda insect cells using a baculovirus expression system. Cells were harvested from culture by centrifuging at 400×g for 5 minutes. Cell pellet was resuspended in 20 ml of RIPA Buffer (150 mM NaCl, 10 mM Tris, 0.1% NP-40, pH8.3), 4 ml/200 ml of culture, plus protease inhibitors (100 μl/10 ml) and incubated on ice for 10-20 minutes then spun at 3500×g for 10 minutes at 4° C. Supernatant was kept and the pellet thrown away. Tritium-labeled cyclic AMP was hydrolysed to 5′-AMP by PDE3A. The 5′-AMP was then further hydrolysed to adenosine by nucleotidase in snake venom. An anion-exchange resin binds all charged nucleotides and leaves [3H]adenosine as the only labeled compound to be counted by liquid scintillation. The radiometric assay method is a modification of the two-step method of Thompson and Appleman [Biochemistry 10; 311-316; 1971], adapted for a 96 well plate format. 50 μl of diluted PDE3A was incubated with 50 μl of [3H]-CAMP (specific activity 25 Ci/mmol) and 11 μl of 50% DMSO (or compound dilution) for 20 minutes at 30° C. The enzyme was diluted in 20 mM Tris HCl pH7.4 (×2.2 final concentration) and [3H]-cAMP were diluted in 10 mM MgCl2, 40 mM Tris HCl pH 7.4 (×2.2 final concentration). Reactions were carried out in Greiner 96 deep well 1 ml master-block. The plates were centrifuged for 9 seconds before the 20 minutes incubation. The reaction was terminated by denaturing the PDE enzyme (at 70° C. for 2 minutes, plates were left to cool on ice for 10 minutes) after which 25 μl snake venom nucleotidase (225 ug/ml final concentration) was added and incubated for 10 minutes (at 30° C.), plates were centrifuged for 9 seconds before incubation. After incubation 200 μl Dowex resin (1×8, 200-400 mesh) was added and the plate was shaken for 20 minutes then centrifuged for 3 minutes at 1000×g. 50 μl of supernatant was removed and added to 200 μl of MicroScint-20 in white plates (Greiner 96-well Optiplate) and shaken for 30 minutes before reading on Perkin Elmer TopCount Scintillation Counter. GraphPad Prism™ was used to calculate the IC50 values using a sigmoidal dose response (variable slope). The analysis measures 4 parameters including the best fit values for the bottom and top fit of the curve, the hill slope value and the IC50 value.

How did the Kd [1] turn out when COc1cc(NC(=O)c2cc3c(nc2C2=CCOCC2)COC3)cc2c(C)cc(=O)[nH]c12 [Example 2, 2-(3,6-dihydro-2H-pyran-4-yl)-N-(8-methoxy-4-methyl-2-oxo-1H-quinolin-6-yl)-5,7-dihydrofuro[3,4-b]pyridine-3-carboxamide] was run?
Its Kd is 64 nM.

What about the “Selectivity BRD4(2)/BRD4(1)” value [1] of the same molecule?
The value was 41.

And the Kd [2]?
The Kd was 2600 nM.

And the IC50 [3]?
Its IC50 is greater than 10000 nM.

Which Kd [1] does the source give for Cc1cc(=O)[nH]c2c(OC3CNC3)cc(NC(=O)c3cc4c(nc3N3CCOCC3)COC4)cc12 [Example 37, N-[8-(azetidin-3-yloxy)-4-methyl-2-oxo-1H-quinolin-6-yl]-2-morpholino-5,7-dihydrofuro[3,4-b]pyridine-3-carboxamide] here?
Its Kd is 35 nM.

And the “Selectivity BRD4(2)/BRD4(1)” value [1]?
Its value is greater than 286.

And the Kd [2]?
Its Kd is greater than 10000 nM.

And the IC50 [3]?
The IC50 was greater than 10000 nM.

What does the source list for COc1cc(NC(=O)c2cc3c(nc2N2C4CCC2COC4)COC3)cc2c(C)cc(=O)[nH]c12 [Example 17, N-(8-methoxy-4-methyl-2-oxo-1H-quinolin-6-yl)-2-(3-oxa-8-azabicyclo[3.2.1]octan-8-yl)-5,7-dihydrofuro[3,4-b]pyridine-3-carboxamide]?
Kd [1]: 25 nM; Selectivity BRD4(2)/BRD4(1) [1]: 44; Kd [2]: 1100 nM; IC50 [3]: > 10000 nM

How did the Kd [1] turn out when Cc1c(NC(=O)c2cc3c(nc2N2CCOCC2)COC3)cc2c(C)cc(=O)[nH]c2c1C [Example 13, 2-morpholino-N-(4,7,8-trimethyl-2-oxo-1H-quinolin-6-yl)-5,7-dihydrofuro[3,4-b]pyridine-3-carboxamide] was run?
The Kd was 280 nM.

And the “Selectivity BRD4(2)/BRD4(1)” value [1]?
The value was greater than 35.

What about the Kd [2] of the same molecule?
The Kd was greater than 10000 nM.

And the IC50 [3]?
The IC50 was greater than 10000 nM.

How did the Kd [1] turn out when COc1cc(NC(=O)c2cc3c(nc2N2C4CCC2CC4)COC3)cc2c(C)cc(=O)[nH]c12 [Example 39, 2-(7-azabicyclo[2.2.1]heptan-7-yl)-N-(8-methoxy-4-methyl-2-oxo-1H-quinolin-6-yl)-5,7-dihydrofuro[3,4-b]pyridine-3-carboxamide] was run?
Its Kd is 7 nM.

What about the “Selectivity BRD4(2)/BRD4(1)” value [1] of the same molecule?
The value was 43.

What about the Kd [2] of the same molecule?
The Kd was 300 nM.

What about the IC50 [3] of the same molecule?
Its IC50 is greater than 10000 nM.

With COc1cc(NC(=O)c2cc3c(nc2N2CCOCC2)COC3)cc2c(C)cc(=O)[nH]c12 [Example 15, N-(8-methoxy-4-methyl-2-oxo-1H-quinolin-6-yl)-2-morpholino-5,7-dihydrofuro[3,4-b]pyridine-3-carboxamide] as the molecule, how does the Kd [1] read?
Its Kd is 14 nM.

And the “Selectivity BRD4(2)/BRD4(1)” value [1]?
Its value is 157.

What about the Kd [2] of the same molecule?
Its Kd is 2200 nM.

And the IC50 [3]?
The IC50 was greater than 10000 nM.

What does the source list for COc1cc(NC(=O)c2cc3c(nc2N2CC[C@H](F)C2)COC3)cc2c(C)cc(=O)[nH]c12 [Example 41, 2-[(3S)-3-fluoropyrrolidin-1-yl]-N-(8-methoxy-4-methyl-2-oxo-1H-quinolin-6-yl)-5,7-dihydrofuro[3,4-b]pyridine-3-carboxamide]?
Kd [1]: 92 nM; Selectivity BRD4(2)/BRD4(1) [1]: >109; Kd [2]: > 10000 nM; IC50 [3]: > 10000 nM

For COc1cc(NC(=O)c2cc3c(nc2N2CCOCC2)CNC3)cc2c(C)cc(=O)[nH]c12 [Example 1, N-(8-methoxy-4-methyl-2-oxo-1H-quinolin-6-yl)-2-morpholino-6,7-dihydro-5H-pyrrolo[3,4-b]pyridine-3-carboxamide], which Kd [1] is on record?
The Kd was 8 nM.

What about the “Selectivity BRD4(2)/BRD4(1)” value [1] of the same molecule?
Its value is 75.

And the Kd [2]?
Its Kd is 600 nM.

And the IC50 [3]?
Its IC50 is greater than 10000 nM.

Which Kd [1] does the source give for COc1cc(NC(=O)c2cc3c(nc2N(C)C)COC3)cc2c(C)cc(=O)[nH]c12 [Example 6, 2-(dimethylamino)-N-(8-methoxy-4-methyl-2-oxo-1H-quinolin-6-yl)-5,7-dihydrofuro[3,4-b]pyridine-3-carboxamide] here?
The Kd was 120 nM.

And the “Selectivity BRD4(2)/BRD4(1)” value [1]?
The value was 11.

What about the Kd [2] of the same molecule?
The Kd was 1300 nM.

What about the IC50 [3] of the same molecule?
The IC50 was greater than 10000 nM.
